Structures are written as SMILES. Activity calls are given as the source filed them.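 Rule for the calls: active = mean IC50 for reducing PEG3 promoter reporter signal at or below a set limit, with IC50 above the limit in both counter screens; inactive = the rest, including counter screen hits.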

For test [1], the target named is PEG-3 (UniProt Q6IN02). Briefly: inhibition of PEG-3 promoter-driven reporter – cell-based, HeLa, luciferase, CREF/GAPDH counter-screen panel, dose response (AID 624167). The note with it: HeLa PEG-Prom luciferase reporter, overnight, CREF/GAPDH counter-screens, mean of runs. (A counterscreen serves to expose hits that act by an unwanted route or on another target.)

In test [2] the test system is PEG-3. Described as above. The note with it: HeLa PEG-Prom luciferase reporter, overnight, CREF/GAPDH counter-screens.
The mark [3] stands for this setting: run 1, dose range 1, individual replicate IC50 per panel.
The mark [4] stands for this setting: run 2, dose range 1, individual replicate IC50 per panel.

PEG-3 (UniProt Q6IN02), sequence (Q6IN02 whole entry, looked up): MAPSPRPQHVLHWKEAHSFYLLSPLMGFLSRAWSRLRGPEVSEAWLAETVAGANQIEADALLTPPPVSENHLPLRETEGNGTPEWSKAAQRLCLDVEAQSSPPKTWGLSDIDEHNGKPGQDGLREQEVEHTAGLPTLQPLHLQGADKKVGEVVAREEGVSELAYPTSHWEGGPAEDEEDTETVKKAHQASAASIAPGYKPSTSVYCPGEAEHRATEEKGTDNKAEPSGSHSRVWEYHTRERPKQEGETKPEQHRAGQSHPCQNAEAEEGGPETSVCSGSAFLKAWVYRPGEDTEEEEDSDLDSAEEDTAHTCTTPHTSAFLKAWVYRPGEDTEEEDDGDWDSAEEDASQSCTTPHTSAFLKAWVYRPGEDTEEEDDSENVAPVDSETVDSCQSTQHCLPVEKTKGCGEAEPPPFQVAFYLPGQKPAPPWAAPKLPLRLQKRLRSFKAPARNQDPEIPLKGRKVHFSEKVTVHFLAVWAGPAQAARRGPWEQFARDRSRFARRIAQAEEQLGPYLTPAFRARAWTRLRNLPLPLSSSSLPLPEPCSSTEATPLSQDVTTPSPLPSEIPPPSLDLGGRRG

Take `COc1cc(/C=C2\SC(=S)N(CCC(=O)N3CCCCC3)C2=O)cc(OC)c1OC`: on PEG-3 [1], the IC50 – broadly, the concentration that gives 50% inhibition – was “inactive”. For the same compound, the IC50 was found to be 35.1 µM with PEG-3 [2] (setting [3]) and 19.1 µM in the test on PEG-3 [2] (setting [4]).

Take `CC(=O)c1ccc(Nc2nc(C(N)Cc3ccc(Cl)cc3)cs2)cc1` (stereo not drawn): on PEG-3 [1], the IC50 result is “inactive”. Further, the results for the IC50 with PEG-3 [2] (setting [3]) and in the test with PEG-3 [2] (setting [4]) were 25.7 µM and 15.1 µM, respectively.

With `Cc1cc(C(=O)COC(=O)C2=COCCO2)c(C)n1-c1ccccc1`, the IC50 is 11.8 µM at PEG-3 [1], 11.1 µM with PEG-3 [2] (setting [3]) and 12.5 µM in the test with PEG-3 [2] (setting [4]).

As to `c1ccc(CN2CCC(Nc3nc(-c4cccnc4)nc4ccccc34)CC2)cc1`, the IC50 result on PEG-3 [1] was “inactive”. The values for the IC50 with PEG-3 [2] (setting [3]) and with PEG-3 [2] (setting [4]) were 20.2 µM and 26.7 µM, respectively.

Regarding `Cc1ccc(-n2cc(-c3ccccc3)c3c(N4CCOCC4)ncnc32)cc1`, the IC50 at PEG-3 [1] was 18.2 µM; with PEG-3 [2] (setting [3]), 10.8 µM; with PEG-3 [2] (setting [4]), 25.7 µM.

Consider `Cc1cccc(CN2C(=O)[C@H]3Cc4c([nH]c5ccccc45)C(C)(C)N3C2=O)c1`, for which the IC50 entry at PEG-3 [1] was “inactive”. For the same compound, the IC50 in the test with PEG-3 [2] (setting [3]) was 29.9 µM; in the test on PEG-3 [2] (setting [4]) it was 28.6 µM.

Turning to `NC(N)=N/N=C/c1ccc(Cl)cc1Cl`, the IC50 entry on PEG-3 [1] was “inactive”. Also, the IC50 in the test on PEG-3 [2] (setting [3]) is 23.6 µM; in the test with PEG-3 [2] (setting [4]), 17.6 µM.

With `O=Nc1c(O)ccc2cc(S(=O)(=O)O)ccc12`, the IC50 at PEG-3 [1] was 11.7 µM; in the test on PEG-3 [2] (setting [3]), 9.17 µM; with PEG-3 [2] (setting [4]), 14.2 µM.

With `COc1cc(/C=C/C(=O)N2CCC=CC2=O)cc(OC)c1OC`, the IC50 was 14 µM on PEG-3 [1], 15.9 µM in the test with PEG-3 [2] (setting [3]) and 12.1 µM in the test with PEG-3 [2] (setting [4]).

Turning to `COc1cccc(C(=O)O/N=C(\N)c2ccccn2)c1`, the IC50 is 11.1 µM on PEG-3 [1], 15.2 µM in the test on PEG-3 [2] (setting [3]) and 7.08 µM with PEG-3 [2] (setting [4]).

Take `CN(C)CCc1cc2c(c3c1ccc1ccccc13)OCO2`: the IC50 on PEG-3 [1] was 14 µM; in the test on PEG-3 [2] (setting [3]) it was 16.9 µM; in the test on PEG-3 [2] (setting [4]), 11.2 µM.

As for `CCn1cc(C(=O)NCCC(C)C)c(=O)c2cc(F)c(N3CCN(C(=O)c4ccco4)CC3)cc21`, the IC50 entry at PEG-3 [1] was “inactive”. Also, the IC50 in the test with PEG-3 [2] (setting [3]) was 37.8 µM; with PEG-3 [2] (setting [4]) it was greater than 100 µM.

As to `c1cc2c3c(cccc3c1)NC1(CCC3(CC1)Nc1cccc4cccc(c14)N3)N2`, the IC50 result on PEG-3 [1] is “inactive”. The IC50 turned out to be 18.4 µM in the test with PEG-3 [2] (setting [3]) and 44.7 µM in the test on PEG-3 [2] (setting [4]).

Regarding `CN(C)CCNC(=O)c1sc2nc(-c3ccccc3)cc(C(F)(F)F)c2c1N`, on PEG-3 [1], the IC50 entry was “inactive”. Also, the IC50 turned out to be 20.5 µM in the test with PEG-3 [2] (setting [3]) and 19.8 µM in the test on PEG-3 [2] (setting [4]).

In the case of `Cc1ccc2nc(N(CCCN(C)C)C(=O)c3ccc4c(c3)CCCC4)sc2c1`, the IC50 on PEG-3 [1] was 19.8 µM; in the test on PEG-3 [2] (setting [3]) it was 22 µM; with PEG-3 [2] (setting [4]), 17.6 µM.

In the case of `CCOC(=O)c1c(NC(C)=O)sc2c(OCC(O)CN(CC)CC)c(Br)ccc12` (stereo not drawn), the IC50 on PEG-3 [1] is 13.9 µM; in the test on PEG-3 [2] (setting [3]), 20.7 µM; with PEG-3 [2] (setting [4]), 7.1 µM.

Consider `CC(C)c1ccc(-c2nc3ccccc3s2)cc1`, for which the IC50 result on PEG-3 [1] was “inactive”. In addition, the results for the IC50 in the test with PEG-3 [2] (setting [3]) and with PEG-3 [2] (setting [4]) were 14 µM and 40.2 µM, respectively.

Consider `Cc1ccc2cc3c(N)c4c(C)ccc(C)c4nc3nc2c1`, for which the IC50 entry on PEG-3 [1] is “inactive”. The concentration for half-maximal inhibition (IC50) was greater than 100 µM in the test on PEG-3 [2] (setting [3]) and 17.1 µM with PEG-3 [2] (setting [4]).

As to `NC(=O)c1nsc(C(=O)N(c2ccccc2F)C(C(=O)NCc2ccccc2)c2ccc(O)cc2)c1N` (stereo not drawn), on PEG-3 [1], the IC50 result is “inactive”. Besides, the IC50 with PEG-3 [2] (setting [3]) was 39.4 µM; in the test on PEG-3 [2] (setting [4]), greater than 100 µM.

`CCOC(=O)c1cccc(Nc2nc(-c3cccnc3)nc3ccccc23)c1`: the IC50 is 11.8 µM at PEG-3 [1], 12.1 µM in the test with PEG-3 [2] (setting [3]) and 11.4 µM with PEG-3 [2] (setting [4]).

For the compound `COC(=O)C1=C(C)N(Cc2ccccc2)C(=NCCc2c[nH]c3ccccc23)N[C@H]1c1cccc(C(F)(F)F)c1`, the IC50 result at PEG-3 [1] is “inactive”. Further, the IC50 was found to be 17.8 µM in the test with PEG-3 [2] (setting [3]) and 23 µM in the test with PEG-3 [2] (setting [4]).

Regarding `CC(C)N1CCc2c(sc(NC(=O)c3cc4cc([N+](=O)[O-])ccc4s3)c2C(N)=O)C1`, at PEG-3 [1], the IC50 result is “inactive”. Further, the IC50 in the test with PEG-3 [2] (setting [3]) was 22.5 µM; in the test with PEG-3 [2] (setting [4]), 17.6 µM.

For the compound `CN(C)C(=O)c1cccc(-c2cnc3c(NC=O)cc(-c4cccc(C(F)(F)F)c4)cn23)c1`, the IC50 was 16 µM at PEG-3 [1], 11.6 µM in the test on PEG-3 [2] (setting [3]) and 20.3 µM in the test with PEG-3 [2] (setting [4]).

Regarding `Cc1c(C(=O)N2CCN(c3ccc(F)cc3)CC2)sc2ncnc(N3CCN(c4ccccn4)CC3)c12`, the IC50 is 13.7 µM on PEG-3 [1], 11.9 µM with PEG-3 [2] (setting [3]) and 15.6 µM with PEG-3 [2] (setting [4]).

Turning to `CC1CCCCN1C(=O)c1cccc(NC2=C(Cl)C(=O)N(Cc3ccccc3)C2=O)c1` (stereo not drawn), the IC50 result on PEG-3 [1] is “inactive”. Also, the IC50 amounted to 29.9 µM with PEG-3 [2] (setting [3]) and 51.8 µM in the test with PEG-3 [2] (setting [4]).

In the case of `O=C1c2ccccc2C(=O)C12OC2c1ccc(Cl)cc1Cl` (stereo not drawn), on PEG-3 [1], the IC50 entry was “inactive”. Moreover, the values for the IC50 in the test on PEG-3 [2] (setting [3]) and with PEG-3 [2] (setting [4]) were 28.4 µM and 14.6 µM, respectively.

The values above are taken from PubChem BioAssay AID624167 (Sanford-Burnham Center for Chemical Genomics, 2012).
